The values below come from patent US20070196514A1, “Prostate cancer treatment with glycogen synthase kinase-3beta inhibitors” (priority 2006, published 2007).

The test system of series [1] is PC-3 cells. Nature of the series: MTT cell growth assay. Format: cell-based, human. To be noted: equimolecular concentrations of LiCl, NaCl, KCl, three days. As for the experimental part:
(§1) For MTT-based cell growth assays, cells seeded in 96-well plates were serum-starved for 48 hours, and were then treated with vehicle or different reagents for different time periods as indicated in the figures. MTT assay were carried out using a pre-assembled kit (Sigma) according to the manufacturer's manual.
(§2) To rule out the eventual intervention of the chloride anion and the osmotic disturbance, the effect of LiCl was compared with sodium chloride (“NaCl”) and potassium chloride (“KCl”) at equimolecular concentrations in both LNCaP and PC-3 cell lines. In addition, the androgen-insensitive C4-2 cell line was included. To easily handle the experiments while multiple comparisons were taken in place, a MTT assay was used to assess cell growth.
On the technique in general: Tetrazolium assays rely on reduction of a dye to a coloured formazan, in cell work by metabolically active cells.

Series [2] relates to C4-2 cells. Nature of the series: MTT cell growth assay. Format: cell-based, human. To be noted: equimolecular concentrations of LiCl, NaCl, KCl, three days. As for the experimental part: as §1, §2
In series [3] the test system is LNCaP cells. The experiment in a line: MTT cell growth assay. Format: cell-based, human. To be noted: three days; for cell growth inhibition (MTT): equimolecular concentrations of LiCl, NaCl, KCl; for cell growth (MTT): increasing doses in full culture medium, dose-responsive. As for the experimental part:
as §1, §2
Lastly, two GSK-3β-specific small chemical inhibitors, SB216763 and BIO, were used to verify that LiCl-induced suppression of cell growth is due to GSK-3β inhibition. LNCaP cells were seeded as above and then treated with increasing doses of the inhibitors in a full culture medium. Cell growth was assessed three days later by MTT assay.

In series [4] the test system is LNCaP cells. Nature of the series: Western blot of cell cycle-related proteins. Format: cell-based, human. To be noted: BIO at different doses for 24 hours. As for the experimental part:
Western blot was carried out as described previously (Liao 2004, Liao 2003, and Liao 2005). Briefly, cells were pellets and lysed in radio-immunoprecipitation assay (“RIPA”) buffer containing protease inhibitors (Half™ Protease Inhibitor Cocktail Kit, PIERCE, Rockford, Ill.). Proteins were separated on SDS-PAGE gels and transferred to Immuno-Blot™ PVDF membrane (BIO-RAD, Hercules, Calif.). Membranes were blocked in a tris-buffered solution plus Tween 20 (“TBST”) solution with 5% nonfat dry milk and incubated with primary antibodies overnight at 4° C. Immunoreactive signals were detected by horseradish peroxidase-conjugated secondary antibodies (Santa Cruz Biotech., Santa Cruz, Calif.) followed by SuperSingnal® WestFeml® Maximum Sensitivity Substrate (PIERCE).
To verify those alterations at a protein level, two series experiments were conducted using Western blot technique. The first involved a time-course experiment. After serum starvation, LNCaP cells were left untreated or treated as before with LiCl for up to 24 hours. Cells were harvested at 18-24 hours.
Next, a dose-response experiment was performed. Following serum starvation for 24 hours, LNCaP cells were treated with BIO at different doses for another 24 hours. Control cells received the vehicle as treatment.
For orientation: A western blot detects proteins with antibodies after separation by electrophoresis.

The conditions of series [5]: humans; cited from earlier work.
A short description of series [6]: estimated serum lithium level in mice. The class given is in vivo. To be noted: about 2 mg/kg of body weight, estimated (Moore 2002). An excerpt:
Based on these preliminary results, therapeutically effective dosage levels include those substantially below those used for treatment of bipolar disorders with lithium in humans, which are reported to result in a serum level between about 0.2 and 1.5 mEq/L (Noble 2005), and is usually over 0.8 mEq/L.

In series [7] the test system is LNCaP-BclxL xenografts. Nature of the series: LNCaP-BclxL xenograft model. Format: in vivo, castrated nude mice. As for the experimental part:
All animal studies were conducted under an approved Institutional Animal Care and Use Committee protocol. Single cell suspensions (2×10^6 cells in 0.1 ml of RPMI1640 medium plus 10% FBS) were inoculated subcutaneously (s.c.) into the rear flanks (two sites/mouse) of 6 to 7 weeks old male nude mice (Charles River, Wilmington, Mass.). For protocol A, mice were randomly divided into two groups (5 animals each). On next day after inoculation, one group of animals received i.p. injection of LiCl at a daily dose of 2 mg/kg body weight. LiCl was dissolved in PBS. The control groups of animals received PBS alone in the same volume. Xenograft development and growth were monitored for 8 weeks. The tumor dimensions were measured twice a week. The tumor volume was calculated by the formula of L×W×H×0.5236 (Miyake 2001). At the end of treatment, xenograft tumors were extirpated, and the final tumor size and weight, as well as animal weight were measured. For protocol B, treatment began until tumor became palpable or 50 mm^3 in size, and LiCl or PBS was injected (5 animals each group) as above for a two-week course. Tumor size and weight were measured at the end of treatment. For BrdU in vivo labeling, the animals were injected i.p. with 0.5 ml of a 10-mM BrdU solution (Invitrogen) 2 hours before sacrifice. For experiments involving LNCaP-BclxL SB216763 subline cells (Liao 2005) were inoculated as above, and SB216763 treatment was started two weeks later when palpable xenografts were established. The SB216763 for animal use was purchased from Biomol (Plymouth Meeting, Pa.) and dissolved in a formula containing 50% N,N-dimethylacetamide (“DMA”), 45% polyethylene glycol 400 (“PEG-400”) and 5% Tween-80. SB216763 (2 mg/kilogram/bodyweight) or the solvent in 20 μl volume was injected i.p. three times a week. Tumor growth was monitored as discussed herein. […]

Series [8] concerns AR-null PC-3 cells. To be noted: Mazor 2004; cited from earlier work.
In series [9] the test system is PC-3 cells. Nature of the series: cell cycle analysis by flow cytometry (PI). The class given is cell-based, human. To be noted: 12 hours treatment. As for the experimental part:
(§3) For cell cycle analysis, serum-starved cells were left untreated or treated with different inhibitors for various time periods as indicated in the figures. After trypsinization, the cells were fixed and stained with propidium iodide (“PI”). Cell cycle distribution of PI-labeled cells was analyzed on a fluorescence activated cell sorter (Model EPICS XL-MCL, Beckman-Coulter Co., Fullerton, Calif.) as described previously (Miyake 2001).
(§4) The effect of GSK-3β SB216763 on cell cycle distribution in AR-null PC-3 and androgen-insensitive C4-2 cell lines were also examined.
A general note: A flow cytometer gives signals particle by particle.

For series [10], the system named is C4-2 cells. The experiment in a line: cell cycle analysis by flow cytometry (PI). Format: cell-based, human. To be noted: 12 hours treatment. As for the experimental part:
as §3, §4

Consider `[Cl-].[Na+]` [NaCl, sodium chloride], for which the “cell growth inhibition (MTT)” value in series [1], in series [2] and in series [3] was “did not cause any significant inhibition” in each case.

`O=C1Nc2cc(Br)ccc2/C1=C1/Nc2ccccc2/C1=N\O` [BIO, 6-bromoindirubin-3′-oxime]: the “p21CIP1 protein expression (Western blot)” value in [4] is reported as “increased dramatically”. For the same compound, the “protein levels of cyclins A and E, cdc6 and cdc25C (Western blot)” value in series [4] (dose-dependent) is “significantly reduced”. The “cell growth (MTT)” value in series [3] is “significantly suppressed”.

In the case of `[Li]` [lithium], the “usual serum level at dosages used for treatment of bipolar disorders” value in series [5] is given as “over 0.8 mEq/L”. Besides, the serum level entry in [6] is reported as “about 0.02 mEq/L”.

For the compound `Cn1cc(C2=C(c3ccc(Cl)cc3Cl)C(=O)NC2=O)c2ccccc21` [SB216763, 3-(2,4-Dichlorophenyl)-4-(1-methyl-1H-indol-3yl)-1H-pyrrole-2,5-dione], the side effects result in series [7] (SB216763 2 mg/kg i.p.) is listed as “No side effects”. The “tumor growth vs control animals” value in series [7] (SB216763 2 mg/kg i.p. every two days, palpable tumors) is “largely suppressed”. Moreover, the “treatment duration after which difference in tumor volume became significant” value in [7] (SB216763 2 mg/kg i.p. vs vehicle) was found to be 5 week. In addition, the “growth of AR-null PC-3 cells” value in series [8] is reported as “did not affect growth”. The “cell cycle distribution (S-phase arrest)” value in series [9] and in [10] was “arrested these cells in S-phase” throughout. For the same compound, the “cell growth (MTT)” value in [3] is reported as “significantly suppressed”.

`[Cl-].[K+]` [KCl, potassium chloride]: the “cell growth inhibition (MTT)” value in [1], in series [2] and in series [3] was “did not cause any significant inhibition” each time.
